As usually defined, the IC50 is the concentration that gives 50% inhibition. A word on the inhibition: it is the relative decrease from the control value, in per cent.

For test [1], the system named is Neutrophil. In words: Antiinflammatory activity in human neutrophils assessed as inhibition of fMLF/cytochalasin B-induced superoxide anion generation preincubated for 5 mins followed by fMLF addition after priming with CB for 3 mins by spectrophotometric analysis. The format is functional, cell-based.
Test [2] has as its system Neutrophil. Briefly: Antiinflammatory activity in human neutrophils assessed as inhibition of fMLF/cytochalasin B-induced superoxide anion generation at 10 uM preincubated for 5 mins followed by fMLF addition after priming with CB for 3 mins by spectrophotometric analysis relative to control. The format is functional.

Each structure is given as a SMILES string.

In the case of `COc1cc2c(cc1O)C[C@H]1c3c(cc(OC)c(OC)c3-2)CCN1C`, the IC50 with Neutrophil [1] stood at 8.36 µM. Also, the inhibition at 10 µM in the test with Neutrophil [2] is > 50%. As to `C=C1O[C@@H]2[C@@H](OC(C)=O)C3=C(C)C(=O)OC3=C[C@@]2(C)[C@@H]2C[C@H]12`, the IC50 in the test on Neutrophil [1] was 7.45 µM. For the same molecule, the inhibition at 10 µM in the test with Neutrophil [2] was > 50%. `O=c1c(-c2ccc(O)cc2)coc2cc(O)cc(O)c12` [GENISTEIN]: the IC50 with Neutrophil [1] turned out to be 1.11 µM.

`COc1cc2c(cc1O)C[C@H]1c3c(cc(OC)c(O)c3-2)CCN1C` [ISOBOLDINE]: in the test with Neutrophil [1], the IC50 was 5.81 µM. Also, in the test with Neutrophil [2], the inhibition at 10 µM is > 50%.

The values are drawn from ChEMBL document CHEMBL4725233, “Anti-inflammatory principles from Lindera aggregata” (Bioorg Med Chem Lett, 2020).
